Experimental data published in patent publication US6677370B2, “Compositions and uses of dictyostatin compounds” (Harbor Branch Oceanographic Institution, Inc., priority 2000, dated 2004).
Read-outs that look alike come from different tables or passages of the source.

Legend:
cellular proliferation = conditions: literature; cited from earlier work
[1] = test system: purified bovine brain tubulin; test: Polymerization of purified tubulin (optical density at 350 nm); format: biochemical; conditions: 10 μM
Description: Polymerization of purified bovine brain tubulin (Cytoskeleton Inc., Denver, Co.) was followed by changes in the optical density of tubulin solutions at 350 nm in a Hitachi U-3010 spectrophotometer equipped with a SPR-10 electronic thermostatted cell holder. Stock solutions of tubulin were diluted on ice in G-PEM buffer (1 mM GTP, 80 mM PIPES (piperazine-N,N′-bis(2-ethanesulfonic acid]sesquisodium salt), 1 mM EGTA (ethylene glycol-bis(b-amine ethyl ether) N,N,N,N′-tetra acetic acid), 0.5 mM magnesium chloride; pH 6.8) to a final concentration of 1 mg/ml. The instrument was zeroed on this solution at 4° C. Dictyostatin-1, was then added to the tubulin to a final concentration of 10 μM and quickly mixed. The polymerization was monitored by observing light scattering changes in optical density at 350 nm using the spectrophotometer. The temperature was varied for a time period of […] beginning at 4° C. for 1 minute, then linearly ramping to 35° C. over 30 minutes, with a hold of one minute at 35° C., then linearly decreasing to 4° C. over 15 minutes, with this temperature being maintained for an additional 15 minutes. Absorbance was measured and recorded over the entire time period.

[2] = test system: MES-SA/DX5 Taxol resistant uterine carcinoma; test: Cytotoxicity, MTT assay, MES-SA/DX5; format: cell-based, human; conditions: for IC50: Homo sapiens, read-out: IC50 (Std dev) MES-SA/DX5; for Resistance, MES-SA/DX5 relative to MES-SA: ratio of IC50 values, resistant vs sensitive line; for resistance of MES-SA/DX5 cells: resistant vs Taxol-sensitive counterpart
Description: (§1) The cytotoxicity of dictyostatin-1 for various Taxol resistant and sensitive cell lines was compared to that of Taxol. The cell lines used were A549 human adenocarcinoma, MCF-7 human breast carcinoma, MCF-7ADR multi-drug resistant (Taxol resistant) human breast carcinoma, MES-SA human uterine carcinoma and MES-SA/DX5 Taxol resistant uterine carcinoma. All cell lines were maintained in Roswell Park Memorial Institute (RPMI) medium 1640 supplemented with 100 U/ml penicillin, […] streptomycin, 60 mg/ml 1-glutamine, 18 mM HEPES, 0.05 mg/ml gentamicin (Life Technologies, Gaithersburg, Md.) and 10% fetal bovine serum and cultured in plastic tissue culture flasks at 37° C. in humidified air containing 5% CO2. Stock cultures of cells were subcultured 1:10 every 3 to 4 days. To assess the antiproliferative effects of agents against the cells, 200 μl cultures (96-well tissue culture plates, Nunc, Denmark) were established at 1×10^5 cells/mL in TCM or TCM containing the test agent at 0.03-5.0 μg/ml. After 72 -h exposures, the effects of dictyostatin-1 and Taxol on cell proliferation were quantitated and IC50 values determined as follows: 75 μl of warm growth media containing 5 mg/ml 3-[4,5-dimethylthiazol-2-yl]-2,5-diphenyltetrazolium bromide (MTT) (M. C. Alley et al. (1988) Cancer Res. 48:589) was added to each well, cultures returned to the incubator, and left undisturbed for 3 hours. To spectrophotometrically quantitate formation of reduced formazan, plates are centrifuged (500×g, 10 minutes), culture fluids removed by aspiration, and 200 μl of acidified isopropanol (2 ml concentrated HC1/liter isopropanol) added per well. The absorbance of the resulting solutions is measured in a plate reader (Tecan Spectra SLT; TECAN U.S., Research Triangle Park, N.C.) at 570 nm and a 650 nm reference filter. The absorbance of tests wells is divided by the absorbance of drug-free wells, and the concentration of agent that results in 50% of the absorbance of untreated cultures (IC50) is determined by linear regression of logit-transformed data (D. J. Finney, Statistical Method in Biological Assay, Third Ed., pp.316-348, Charles Griffin Co., London, 1978). A linear relationship between tumor cell number and formazan production has been routinely observed over the range of cell densities observed in these experiments. The two standard drug controls (indicated above) are included in each assay as a check to monitor the drug sensitivity of each of the cell lines and IC50 values are determined for each drug-cell combination.

[3] = test system: MCF-7ADR multi-drug resistant (Taxol resistant) human breast carcinoma; test: Cytotoxicity, MTT assay, MCF-7/ADR; format: cell-based; conditions: for IC50: Homo sapiens, NCI/ADR-RES, read-out: IC50 (Std dev) MCF-7/ADR; for Resistance, MCF-7/ADR relative to MCF-7: ratio of IC50 values, resistant vs sensitive line; for resistance of MCF-7ADR cells: resistant vs Taxol-sensitive counterpart
Description: as §1

[4] = test system: MES-SA human uterine carcinoma; test: Cytotoxicity, MTT assay, MES-SA; format: cell-based; conditions: read-out: IC50 (Std dev) MES-SA
Description: (§2) The cytotoxicity of dictyostatin-1 for various Taxol resistant and sensitive cell lines was compared to that of Taxol. The cell lines used were A549 human adenocarcinoma, MCF-7 human breast carcinoma, MCF-7ADR multi-drug resistant (Taxol resistant) human breast carcinoma, MES-SA human uterine carcinoma and MES-SA/DX5 Taxol resistant uterine carcinoma. All cell lines were maintained in Roswell Park Memorial Institute (RPMI) medium 1640 supplemented with 100 U/ml penicillin, […] streptomycin, 60 mg/ml 1-glutamine, 18 mM HEPES, 0.05 mg/ml gentamicin (Life Technologies, Gaithersburg, Md.) and 10% fetal bovine serum and cultured in plastic tissue culture flasks at 37° C. in humidified air containing 5% CO2. […] To spectrophotometrically quantitate formation of reduced formazan, plates are centrifuged (500×g, 10 minutes), culture fluids removed by aspiration, and 200 μl of acidified isopropanol (2 ml concentrated HC1/liter isopropanol) added per well. The absorbance of the resulting solutions is measured in a plate reader (Tecan Spectra SLT; TECAN U.S., Research Triangle Park, N.C.) at 570 nm and a 650 nm reference filter. […] The two standard drug controls (indicated above) are included in each assay as a check to monitor the drug sensitivity of each of the cell lines and IC50 values are determined for each drug-cell combination.

[5] = test system: PANC-1 human pancreatic adenocarcinoma cells; test: Immunofluorescent detection of effects on the microtubule matrix (anti-alpha-tubulin); format: cell-based; conditions: PANC-1 cells, 100 nM, overnight
Description: Dictyostatin-1 was evaluated as to its effects on the microtubule network of cells using anti-alpha-tubulin monoclonal antibodies.
PANC-1 human pancreatic adenocarcinoma cells were maintained in tissue culture media (TCM=Roswell Park Memorial Institute (RPMI) medium 1640 supplemented with 100 U/ml penicillin, […] streptomycin, 60 mg/ml 1-glutamine, 18 mM HEPES, 0.05 mg/ml gentamicin and 10% fetal bovine serum) and cultured in plastic culture flasks at 37° C. in humidified air containing 5% CO2. Stock cultures of PANC-1 cells were subcultured 1:10 every 3 to 4 days. On day 1, 1.25×10^5 PANC-1 cells were sub-cultured in TCM overnight at 37° C. in 5% CO2 on 22 mm^2 coverslips in 6-well microtiter plates. On day 2, TCM was removed and replaced with various concentrations of dictyostatin-1, or Taxol, in TCM or TCM without drug (control) and incubated overnight at 37° C. in 5% CO2. On day 3, TCM was removed and cells attached to coverslips were fixed with a 3.7% formaldehyde solution in Dulbecco's PBS for 10 minutes at room temperature. Cells were permeabilized with a 2% Triton X-100 solution, 2 ml per well, for 5 minutes at room temperature and washed twice in Dulbecco's PBS prior to staining. […]

[6] = test system: A549 human adenocarcinoma; test: Cytotoxicity, MTT assay, A549; format: cell-based; conditions: read-out: IC50 (Std dev) A549
Description: as §2

[7] = test system: MCF-7 human breast carcinoma; test: Cytotoxicity, MTT assay, MCF-7; format: cell-based; conditions: read-out: IC50 (Std dev) MCF-7
Description: as §2

[8] = test system: PANC-1 human pancreatic adenoma cells; test: Cell cycle progression of PANC-1 cells (propidium iodide flow cytometry); format: cell-based; conditions: 100 nM, 24 hours; for percentage of cells in S phase: untreated control 5.8%; for percentage of cells in G2/M phase: untreated control 34.4%; for percentage of cells comprising the G1 population: untreated control 59.8%
Description: Cell cycle studies were initiated in order to pinpoint a specific phase within the cell cycle in which dictyostatin-1 was exerting its antiproliferative effect. PANC-1 human pancreatic adenoma cells were used as cell cycle targets to compare the effects on perturbation of the cell cycle of dictyostatin-1 to the known mitotic spindle inhibitor […]. Cell cycle analyses were performed as follows: PANC-1 cells were incubated at 37° C. in 5% CO2 in air in the presence or absence of varying concentrations of dictyostatin-1 or Taxol for 24 hours.
Cells were harvested, fixed in ethanol and stained with 0.02 mg/ml of propidium iodide (P.I.) together with 0.1 mg/ml of RNAse A. This procedure permeabilizes cells and allows entry of P.I. to stain DNA (propidium iodide also stains double stranded RNA, so RNAse is included in the preparation to exclude this possibility). Stained preparations were analyzed on a Coulter EPICS ELITE with 488 nm excitation. Fluorescence measurements and resulting DNA histograms were collected from at least 3,000 P.I. stained cells at an emission wavelength of 690 nm. Raw histogram data was further analyzed using a cell cycle analysis program (Multicycle, Phoenix Flow Systems).

| SMILES | IC50 values, inhibition of cellular proliferation (cellular proliferation) | Resistance, MES-SA/DX5 relative to MES-SA [2] [×] | resistance of MES-SA/DX5 cells [2] [fold] | Resistance, MCF-7/ADR relative to MCF-7 [3] [×] | resistance of MCF-7ADR cells [3] [fold] | effect on microtubule network (bundling) [5] | percentage of cells in S phase [8] [%] | percentage of cells in G2/M phase [8] [%] | percentage of cells comprising the G1 population [8] [%] | other results |
| --- | --- | --- | --- | --- | --- | --- | --- | --- | --- | --- |
| C=C1CC(C)C[C@@H]2CC=C[C@@H](C/C=C\C(=O)O[C@@H]3C[C@H](O[C@@H]3/C=C/[C@H]3CC(C)=CCO3)[C@H](O)C(O)C1)O2 (stereo partly drawn) [isolaulimalide] | low micromolar range | – | – | – | – | – | – | – | – | – |
| C=C1C[C@H](C)C[C@@H]2CC=C[C@@H](C/C=C\C(=O)O[C@H]([C@@H](O)/C=C/[C@@H]3CC(C)=CCO3)C[C@@H]3O[C@H]3[C@@H](O)C1)O2 [Laulimalide] | low nanomolar range | – | – | – | – | – | – | – | – | – |
| C=C/C=C\C(C)C1OC(=O)/C=C\C=C\C(C)C(O)CC(O)/C=C\C(C)C(O)C(C)CC(C)CCC(O)C1C (stereo not drawn) [Dictyostatin-1] | – | 3 | 3 | 13 | 13 | extensive microtubule bundling resulting in almost complete depletion of non-bundled microtubular material in the cytoplasm | 30 | 35 | 36 | stability of polymerized tubulin on cooling ([1]; temperature decreased from 35° C. to 4° C.): did not substantially depolymerize upon reduction of the temperature; induction of tubulin polymerization ([1]; tubulin 1 mg/ml, temperature ramp 4° C. to 35° C.): induced tubulin polymerization with a maximum polymerization level reached at 35 °C; IC50 ([2]; MES-SA/Dx5, 72 h): 11 nM; IC50 ([3]; 72 h): 20 nM; IC50 ([4]; 72 h): 4.1 nM; IC50 ([6]; A549, 72 h): 0.95 nM; IC50 ([7]; MCF7, 72 h): 1.5 nM |
| CC(=O)O[C@H]1C(=O)[C@@]2(C)[C@H]([C@H](OC(=O)c3ccccc3)[C@]3(O)C[C@H](OC(=O)[C@H](O)[C@@H](NC(=O)c4ccccc4)c4ccccc4)C(C)=C1C3(C)C)[C@]1(OC(C)=O)CO[C@@H]1C[C@@H]2O [Taxol] | – | 501 | 501 | 1332 | 1332 | characteristic formation of microtubular “bundles” but also a substantial amount of “non-bundled” microtubular material still remained in the cytoplasm | 27 | 47 | 26 | IC50 ([2]; MES-SA/Dx5, 72-h exposure, MTT): 1650 nM; IC50 ([3]; 72-h exposure, MTT): 3330 nM; IC50 ([4]; 72-h exposure, MTT): 3.3 nM; IC50 ([6]; A549, 72-h exposure, MTT): 5.13 nM; IC50 ([7]; MCF7, 72-h exposure, MTT): 2.5 nM |
